The subject of this test is Sarcoma-180. As to the kind of experiment: Antitumor test against subcutaneously transplanted Sarcoma-180 in ICR mice (Pharmacological Test 1). The format is in vivo. Particulars: Sarcoma-180 s.c. in ICR mice, tail vein once a day for 7 consecutive days from 24 h after transplantation, tumor weight on 10th day. The method, then: Sarcoma-180 subcultured in ascites of ICR mice was diluted with a physiological saline and subcutaneously transplanted into the backs of ICR mice in an amount of 2 ×10^7 cells each. Twenty-four hours after the transplantation, a test compound dissolved in sterilized physiological saline was administered to the tail vein of each of the mice once a day for 7 consecutive days.
The solid tumor was isolated from under the dorsal skin of mice on the 10th day after the transplantation to measure the weight of the tumor There was determined the ratio (T/C) of the weight of tumor (T) of the test compound group to the weight of tumor (C) of the control group.

As for “3'-O-(5-bromo-2-thenyl)-2'-deoxy-5-fluoro-5'-O- glycyluridine hydrochloride [Test Compound 2]”, the “50% tumor inhibition dose (ED50), dose at which T/C of tumor weight is 0.5” value turned out to be 7 mg/kg.

Take `Cl.NCC(=O)OC[C@H]1O[C@@H](n2cc(F)c(=O)[nH]c2=O)C[C@@H]1OCc1ccc(Cl)s1` [Test Compound 1, 3'-O-(5-chloro-2-thenyl)-2'-deoxy-5-fluoro-5'-O-glycyluridine hydrochloride]: the ED50 (Mus musculus, sc, 240 h, read-out: 50% tumor inhibition dose (ED50), dose at which T/C of tumor weight is 0.5) is 5 mg/kg.

The values above are taken from patent publication US4992534A, “3'-O-,5'-O-derivatives of 2'-deoxy-5-fluorouridine” (Otsuka Pharmaceutical Co., Ltd., priority 1987, dated 1991).
